# Values quoted from earlier work, collected in patent US10053407B2, “Crystalline cannabidivarin” (S&B Pharma, Inc., priority 2016, dated 2018).
# System: epilepsy
# Details: animal studies; 50 and 100 mg/kg, delivered intra-peritoneally; cannabidivarin prepared by non-synthetic methods
smiles,measurement,value
C=C(C)[C@@H]1CCC(C)=C[C@H]1c1c(O)cc(CCC)cc1O [cannabidivarin],mortality,effective in reducing mortality
